Active and inactive are the calls of the source. The rule behind the calls is not given here.
Assays:
[1] = molecular target: T1, Tyrosine-protein phosphatase non-receptor type 1 (Homo sapiens) (UniProt P18031); experiment: Reversible inhibition of PTP1B (unknown origin) at 0.1 to 0.4 uM using p-nitrophenyl phosphate substrate incubated for 30 mins by Lineweaver-Burk double reciprocal plot
T1 sequence (whole entry): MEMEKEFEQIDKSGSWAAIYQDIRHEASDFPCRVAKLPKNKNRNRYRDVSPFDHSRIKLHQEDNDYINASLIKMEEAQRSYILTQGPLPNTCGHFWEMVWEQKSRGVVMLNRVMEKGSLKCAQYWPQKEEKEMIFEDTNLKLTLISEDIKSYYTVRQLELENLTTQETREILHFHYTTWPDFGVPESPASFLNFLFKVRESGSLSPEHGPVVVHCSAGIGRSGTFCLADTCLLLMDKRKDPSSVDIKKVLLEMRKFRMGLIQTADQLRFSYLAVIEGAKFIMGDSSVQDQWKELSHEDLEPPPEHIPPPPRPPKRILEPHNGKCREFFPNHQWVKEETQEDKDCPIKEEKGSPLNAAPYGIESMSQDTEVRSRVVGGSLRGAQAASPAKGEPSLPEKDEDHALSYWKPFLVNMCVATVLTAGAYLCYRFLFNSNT

[2] = system: Rattus norvegicus; experiment: Increase in insulin-induced glucose lowering effect in normal Wistar rat at 10 mg/kg, ip dosed 30 mins before insulin injection and measured 30 mins post insulin injection by glucose-oxidase assay; format: functional, organism-based
[3] = system: Rattus norvegicus; experiment: Increase in insulin-induced glucose lowering effect in type 2 diabetic Wistar rat at 10 mg/kg, ip dosed 30 mins before insulin injection and measured 30 mins post insulin injection by glucose-oxidase assay; format: functional, organism-based

inhibition [1]: Active
SMILES: CCCc1cc(OC(=O)c2c(O)cc(OC(=O)c3c(O)cc(O)cc3CCC)cc2CCC)cc(O)c1C(=O)O
Activity [2]: Active
Activity [3]: Active

— ChEMBL document CHEMBL4052696, “Varic acid analogues from fungus as PTP1B inhibitors: Biological evaluation and structure-activity relationships” (Bioorg Med Chem Lett, 2017)
